Literature values as cited in US12357578B2, “Ibuprofen and famotidine tablet” (APPCO PHARMA LLC, priority 2020, dated 2025).

Compound	Solubility in ethanol (in words) (ethanol)	Solubility in glacial acetic acid (in words) (glacial acetic acid)	Solubility in methanol (in words) (methanol)	Solubility in water (in words) (water)	Solubility in organic solvents (in words) (organic solvents such as ethanol and acetone)	Solubility in water (water) [µg/mL]
NC(N)=Nc1nc(CSCCC(N)=NS(N)(=O)=O)cs1 [Famotidine]	practically insoluble	freely soluble	slightly soluble	very slightly soluble	–	–
CC(C)Cc1ccc(C(C)C(=O)O)cc1 (racemic) [Ibuprofen, (±)-2-(p-isobutylphenyl) propionic acid]	–	–	–	very slightly soluble	readily soluble	< 1000
